Measured values reported in paper PMC11280325, “Design, Synthesis, and Characterization of Novel Thiazolidine-2,4-Dione-Acridine Hybrids as Antitumor Agents” (Molecules, 2024).
Where a name gives a salt, the structure may show the parent alone.

Columns and labels:
[1] = tested on: PATU; assay: MTT assay, PATU 8902; type: cell-based, human; details: pancreas adenocarcinoma, 48 h incubation
Procedure, shortened: (§1)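 Antiproliferative IC50 came from MTT absorbance (540 nm, SDS-solubilized) after 48 h treatment at four concentrations, 5-50 µmol/L, applied to cells plated 24 h earlier. Media: RPMI 1640 for HeLa and HCT116, DMEM for A2058 and PATU 8902, each with 10% FBS; nonlinear regression, at least three experiments.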

[2] = tested on: A2780; assay: MTT assay, A2780; type: cell-based, human; details: ovarian adenocarcinoma, 48 h incubation
Procedure, shortened: (§2)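 MTT viability after 48 h exposure to compounds at final 5–50 µmol/L; formazan in 10% SDS read at 540 nm, IC50 fitted by nonlinear regression from at least three independent experiments.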

[3] = tested on: MCF-10A; assay: MTT assay, MCF-10A non-cancerous cells; type: cell-based, human; details: non-cancerous epithelial breast cells, 48 h incubation
Procedure, shortened: (§3)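 IC50 by nonlinear regression from MTT absorbance (540 nm, SDS-dissolved formazan), at least three repeats. Non-cancerous human lines, MCF-10A and BJ-5ta fibroblasts, were treated 48 h with 5, 10, 20 and 50 µmol/L compound, added 24 h after seeding.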

[4] = tested on: HeLa; assay: MTT assay, HeLa; type: cell-based, human; details: cervical adenocarcinoma, 48 h incubation
Procedure, shortened: as §1

[5] = tested on: Hep G2; assay: MTT assay, Hep G2; type: cell-based, human; details: hepatocellular carcinoma, 48 h incubation
Procedure, shortened: as §2

[6] = tested on: HCT116; assay: MTT assay, HCT116; type: cell-based, human; details: colorectal adenocarcinoma, 48 h incubation
Procedure, shortened: as §1

[7] = tested on: A549; assay: MTT assay, A549; type: cell-based, human; details: lung adenocarcinoma, 48 h incubation
Procedure, shortened: as §2

[8] = tested on: Bj-5ta; assay: MTT assay, BJ-5ta non-cancerous fibroblasts; type: cell-based, human; details: non-cancerous dermal fibroblasts, 48 h incubation
Procedure, shortened: as §3

[9] = tested on: A2058; assay: MTT assay, A2058; type: cell-based; details: human melanoma, 48 h incubation
Procedure, shortened: as §1

| SMILES | melting point | IC50 ([2]; Homo sapiens, A2780, 48 h) | IC50 ([4]; Homo sapiens, HeLa, 48 h) | IC50 [6] | IC50 [7] | IC50 ([6]; Homo sapiens, HCT-116, 48 h) | IC50 ([7]; Homo sapiens, A549, 48 h) | IC50 [4] | IC50 [2] | IC50 ([1]; Homo sapiens, PaTu 8902, 48 h) | IC50 [3] | IC50 ([5]; Homo sapiens, HepG2, 48 h) | IC50 ([8]; Homo sapiens, Fibroblast, 48 h) | IC50 ([9]; Homo sapiens, A2058, 48 h) | IC50 ([3]; Homo sapiens, MCF-10A, 48 h) | IC50 [1] | IC50 [5] | IC50 [8] | IC50 [9] |
| --- | --- | --- | --- | --- | --- | --- | --- | --- | --- | --- | --- | --- | --- | --- | --- | --- | --- | --- | --- |
| O=C(COc1ccc(/C=C2\SC(=O)N(Cc3c4ccccc4nc4ccccc34)C2=O)cc1)Nc1ccccc1 [Compound 7a, 2-(4-{[(5Z)-3-[(Acridin-9-yl)methyl]-2,4-dioxo-1,3-thiazolidin-5-ylidene]methyl}phenoxy)-N-phenylacetamide] | 249 to 250 °C | > 50 µM | 24.3 ± 3.8 µM | 37.6 ± 4.2 µM | > 50 µM | – | – | – | – | > 50 µM | > 50 µM | > 50 µM | > 50 µM | > 50 µM | – | – | – | – | – |
| COc1cc(NC(=O)COc2ccc(/C=C3\SC(=O)N(Cc4c5ccccc5nc5ccccc45)C3=O)cc2)cc(OC)c1 [Compound 7b, 2-(4-{[(5Z)-3-[(Acridin-9-yl)methyl]-2,4-dioxo-1,3-thiazolidin-5-ylidene]methyl}phenoxy)-N-(3,5-dimethoxyphenyl)acetamide] | 280 to 282 °C | > 50 µM | 11.3 ± 2.75 µM | – | – | 34.5 ± 2.98 µM | 34.6 ± 5.4 µM | – | – | > 50 µM | 28.8 ± 2.3 µM | > 50 µM | > 50 µM | > 50 µM | – | – | – | – | – |
| COc1cc(NC(=O)COc2ccc(/C=C3\SC(=O)N(Cc4c5ccccc5nc5ccccc45)C3=O)cc2)cc(OC)c1OC [Compound 7c, 2-(4-{[(5Z)-3-[(Acridin-9-yl)methyl]-2,4-dioxo-1,3-thiazolidin-5-ylidene]methyl}phenoxy)-N-(3,4,5-trimethoxyphenyl)acetamide] | 248 to 249 °C | > 50 µM | – | > 50 µM | – | – | > 50 µM | 6.8 ± 2.4 µM | – | > 50 µM | 14.5 ± 2.5 µM | > 50 µM | > 50 µM | > 50 µM | – | – | – | – | – |
| O=C(COc1ccc(/C=C2\SC(=O)N(Cc3c4ccccc4nc4ccccc34)C2=O)cc1)Nc1ccc([N+](=O)[O-])cc1 [Compound 7d, 2-(4-{[(5Z)-3-[(Acridin-9-yl)methyl]-2,4-dioxo-1,3-thiazolidin-5-ylidene]methyl}phenoxy)-N-(4-nitrophenyl)acetamide] | 293 to 294 °C | > 50 µM | – | > 50 µM | – | – | > 50 µM | 20.1 ± 2.95 µM | – | > 50 µM | – | > 50 µM | > 50 µM | > 50 µM | > 50 µM | – | – | – | – |
| O=C(COc1ccc(/C=C2\SC(=O)N(Cc3c4ccccc4nc4ccccc34)C2=O)cc1)Nc1ccccc1C(F)(F)F [Compound 7e, 2-(4-{[(5Z)-3-[(Acridin-9-yl)methyl]-2,4-dioxo-1,3-thiazolidin-5-ylidene]methyl}phenoxy)-N-[2-(trifluoromethyl)phenyl]acetamide] | 256 to 257 °C (dec.) | > 50 µM | – | 22.3 ± 4.6 µM | – | – | > 50 µM | > 50 µM | – | – | – | > 50 µM | > 50 µM | > 50 µM | > 50 µM | > 50 µM | – | – | – |
| O=C(COc1ccc(/C=C2\SC(=O)N(Cc3c4ccccc4nc4ccccc34)C2=O)cc1)Nc1cccc(C(F)(F)F)c1 [Compound 7f, 2-(4-{[(5Z)-3-[(Acridin-9-yl)methyl]-2,4-dioxo-1,3-thiazolidin-5-ylidene]methyl}phenoxy)-N-[3-(trifluoromethyl)phenyl]acetamide] | 250 to 251 °C (dec.) | > 50 µM | 6.2 ± 1.3 µM | – | 16.4 ± 1.85 µM | 8.8 ± 3.7 µM | – | – | – | 11.5 ± 2.06 µM | – | 28.1 ± 5.5 µM | 32.6 ± 7.4 µM | > 50 µM | 9.8 ± 1.9 µM | – | – | – | – |
| O=C(COc1ccc(/C=C2\SC(=O)N(Cc3c4ccccc4nc4ccccc34)C2=O)cc1)Nc1cc(C(F)(F)F)cc(C(F)(F)F)c1 [Compound 7g, 2-(4-{[(5Z)-3-[(Acridin-9-yl)methyl]-2,4-dioxo-1,3-thiazolidin-5-ylidene]methyl}phenoxy)-N-[3,5-bis(trifluoromethyl)phenyl]acetamide] | 227 to 228 °C (dec.) | > 50 µM | 20.9 ± 2.8 µM | 18 ± 1.2 µM | – | – | 18.9 ± 3.85 µM | – | – | > 50 µM | > 50 µM | > 50 µM | > 50 µM | > 50 µM | – | – | – | – | – |
| COc1cc(/C=C2\SC(=O)N(Cc3c4ccccc4nc4ccccc34)C2=O)ccc1OCC(=O)Nc1ccccc1 [Compound 12a·2HCl, 2-(4-{[(5Z)-3-[(Acridin-9-yl)methyl]-2,4-dioxo-1,3-thiazolidin-5-ylidene]methyl}-2-methoxyphenoxy)-N-phenylacetamide dihydrochloride] | – | – | – | 6.55 ± 1.65 µM | > 50 µM | – | – | 18.2 ± 5.1 µM | 15 ± 1.35 µM | – | 19.3 ± 1.1 µM | – | – | – | – | > 50 µM | > 50 µM | 35.5 ± 4.5 µM | > 50 µM |

Continued, in another order:

| melting point | IC50 ([2]; Homo sapiens, A2780, 48 h) | IC50 ([4]; Homo sapiens, HeLa, 48 h) | IC50 [6] | IC50 [7] | IC50 ([6]; Homo sapiens, HCT-116, 48 h) | IC50 ([7]; Homo sapiens, A549, 48 h) | IC50 [4] | IC50 [2] | SMILES | IC50 ([1]; Homo sapiens, PaTu 8902, 48 h) | IC50 [3] | IC50 ([5]; Homo sapiens, HepG2, 48 h) | IC50 ([8]; Homo sapiens, Fibroblast, 48 h) | IC50 ([9]; Homo sapiens, A2058, 48 h) | IC50 ([3]; Homo sapiens, MCF-10A, 48 h) | IC50 [1] | IC50 [5] | IC50 [8] | IC50 [9] |
| --- | --- | --- | --- | --- | --- | --- | --- | --- | --- | --- | --- | --- | --- | --- | --- | --- | --- | --- | --- |
| 258 to 259 °C (dec.) | > 50 µM | – | – | – | 26.9 ± 1.85 µM | > 50 µM | 21.1 ± 7.2 µM | – | O=C(COc1ccc(/C=C2\SC(=O)N(Cc3cccc4cc5ccccc5nc34)C2=O)cc1)Nc1ccccc1 [Compound 8a, 2-(4-{[(5Z)-3-[(Acridin-4-yl)methyl]-2,4-dioxo-1,3-thiazolidin-5-ylidene]methyl}phenoxy)-N-phenylacetamide] | > 50 µM | – | > 50 µM | > 50 µM | > 50 µM | > 50 µM | – | – | – | – |
| 168 to 169 °C (dec.) | > 50 µM | – | – | – | > 50 µM | > 50 µM | 12 ± 2.8 µM | – | COc1cc(NC(=O)COc2ccc(/C=C3\SC(=O)N(Cc4cccc5cc6ccccc6nc45)C3=O)cc2)cc(OC)c1 [Compound 8b, 2-(4-{[(5Z)-3-[(Acridin-4-yl)methyl]-2,4-dioxo-1,3-thiazolidin-5-ylidene]methyl}phenoxy)-N-(3,5-dimethoxyphenyl)acetamide] | > 50 µM | – | > 50 µM | > 50 µM | > 50 µM | > 50 µM | – | – | – | – |
| 193 to 194 °C (dec.) | > 50 µM | > 50 µM | – | – | > 50 µM | > 50 µM | – | – | COc1cc(NC(=O)COc2ccc(/C=C3\SC(=O)N(Cc4cccc5cc6ccccc6nc45)C3=O)cc2)cc(OC)c1OC [Compound 8c, 2-(4-{[(5Z)-3-[(Acridin-4-yl)methyl]-2,4-dioxo-1,3-thiazolidin-5-ylidene]methyl}phenoxy)-N-(3,4,5-trimethoxyphenyl)acetamide] | > 50 µM | – | > 50 µM | > 50 µM | > 50 µM | > 50 µM | – | – | – | – |
| > 300 °C (dec.) | > 50 µM | 44.9 ± 4.2 µM | – | – | 47.6 ± 3.8 µM | > 50 µM | – | – | O=C(COc1ccc(/C=C2\SC(=O)N(Cc3cccc4cc5ccccc5nc34)C2=O)cc1)Nc1ccc([N+](=O)[O-])cc1 [Compound 8d, 2-(4-{[(5Z)-3-[(Acridin-4-yl)methyl]-2,4-dioxo-1,3-thiazolidin-5-ylidene]methyl}phenoxy)-N-(4-nitrophenyl)acetamide] | > 50 µM | – | > 50 µM | > 50 µM | > 50 µM | > 50 µM | – | – | – | – |
